The subject of test [1] is MCF7. The test is described as follows: Growth inhibition of human MCF7 cells relative to control. It counts as functional.
Test [2] relates to MDA-MB-231. The experiment in a line: Growth inhibition of human MDA-MB-231 cells relative to control. The class given is functional.
Another test deals with Ishikawa. The experiment in a line: Growth inhibition of human Ishikawa cells relative to control. It counts as functional.
Test [3] relates to NCI-H460. The experiment in a line: Potency index, ratio of doxorubicin GI50 to compound GI50 for growth inhibition of human NCI-H460 cells. It counts as functional.
The subject of test [4] is SF-268. The test is described as follows: Potency index, ratio of doxorubicin GI50 to compound GI50 for growth inhibition of human SF268 cells. It counts as functional.
Test [5] has as its system NCI-H460. The test is described as follows: Growth inhibition of human NCI-H460 cells. It counts as functional.
The subject of test [6] is MCF7. The test is described as follows: Growth inhibition of human MCF7 cells. The class given is functional.
Test [7] relates to SF-268. The test is described as follows: Growth inhibition of human SF268 cells. It counts as functional.
Test [8] deals with MCF7. The test is described as follows: Potency index, ratio of doxorubicin GI50 to compound GI50 for growth inhibition of human MCF7 cells. The class given is functional.
Another test relates to HCT-116. The test is described as follows: Anticancer activity against human HCT116 cells. It counts as functional, cell-based.
The subject of a further test is PANC-1. The test is described as follows: Growth inhibition of human PANC1 cells. It counts as functional.
For a further test, the system named is OVCAR-8. The test is described as follows: Growth inhibition of human OVCAR8 cells. The class given is functional.
The nature of test [9]: Growth inhibition of human KATO III cells. The class given is functional.
Another test relates to BXPC-3. The experiment in a line: Growth inhibition of human BxPC3 cells. It counts as functional.
The test system of test [10] is K562. The test is described as follows: Growth inhibition of human K562 cells. It counts as functional.
A further test relates to AGS. The test is described as follows: Growth inhibition of human AGS cells. The class given is functional.
A further test deals with HepG2. The experiment in a line: Growth inhibition of human HepG2 cells. It counts as functional.
A further test has as its system SN12C. The experiment in a line: Growth inhibition of human SN12C cells. The class given is functional.
In the next test the test system is T-24. The test is described as follows: Growth inhibition of human T24 cells. The class given is functional.
In a further test the test system is SK-OV-3. The test is described as follows: Growth inhibition of human SKOV3 cells. The class given is functional.
The next test has as its system WiDr. The test is described as follows: Growth inhibition of human WiDr cells. It counts as functional.
Another test relates to SNU1. The test is described as follows: Growth inhibition of human SNU1 cells. The class given is functional.
In a further test the test system is OVCAR-4. The test is described as follows: Anticancer activity against human OVCAR4 cells. It counts as functional.
The subject of the next test is SNB-75. The experiment in a line: Anticancer activity against human SNB75 cells. It counts as functional.
Test [11] deals with K562. The experiment in a line: Anticancer activity against human K562 cells by MTT assay. It counts as functional, cell-based. (Tetrazolium dyes change colour on reduction, which living cells bring about.)
The test system of test [12] is A549. The experiment in a line: Anticancer activity against human A549 cells by MTT assay. The class given is functional, cell-based.
The subject of test [13] is HeLa. The test is described as follows: Potency index, ratio of doxorubicin IC50 to compound IC50 for anticancer activity against human HeLa cells. The class given is functional.
Test [14] concerns K562. The experiment in a line: Potency index, ratio of doxorubicin IC50 to compound IC50 for anticancer activity against human K562 cells. It counts as functional.
For test [15], the system named is MDA-MB-231. The experiment in a line: Anticancer activity against human MDA-MB-231 cells by MTT assay. The class given is functional, cell-based.
In test [16] the test system is MDA-MB-231. The test is described as follows: Potency index, ratio of doxorubicin IC50 to compound IC50 for anticancer activity against human MDA-MB-231 cells. It counts as functional.
The subject of test [17] is HeLa. The test is described as follows: Anticancer activity against human HeLa cells by MTT assay. The class given is functional, cell-based.
The subject of test [18] is A549. The experiment in a line: Potency index, ratio of doxorubicin IC50 to compound IC50 for anticancer activity against human A549 cells. The class given is functional.

We go through six compounds from ChEMBL document CHEMBL4373717, “Coumarin-containing hybrids and their anticancer activities” (Eur J Med Chem, 2019).

pIC50: −log10 of the molar value. Values after ≈ are worked out from the molar mass of the structure shown.

For the compound `Cc1cc(=O)oc2cc(Oc3nc(-c4cccs4)cn4c(-c5cccs5)cnc34)ccc12`, the “growth inhibition (GI)” value in the test with MCF7 [1], in the test on MDA-MB-231 [2] and in the test with Ishikawa was 10.57 - 92.29% each time.

A word on the GI50: it is the concentration at which growth is held to half of that of the control. A low value points to greater sensitivity of the cells. On to `O=c1oc2ccccc2cc1-c1nc2ccccc2n1C(=S)Nc1ccccc1`, for which the RatioGI50 with NCI-H460 [3], in the test on SF-268 [4] and in the test with MCF7 [8] was 1.5 - 2 in each case. Further, the GI50 in the test with NCI-H460 [5], in the test with MCF7 [6] and with SF-268 [7] was 50 to 80 nM in each case.

As a reminder, the pIC50 is −log10 of the IC50, conventionally taken in molar units. Low readings indicate a high IC50, high ones a low IC50. On to `NS(=O)(=O)c1ccc(Nc2nn3c(Cc4cc(=O)oc5ccccc45)nnc3s2)cc1`, for which the pIC50 in the test on HCT-116 is 5.58.

In the case of `CCN(CC)c1ccc2cc(-c3nc4ccccc4n3C)c(=O)oc2c1`, the GI50 (in the test with PANC-1; with OVCAR-8; in test [9]; in the test on BXPC-3; with K562 [10]; with AGS) was 70 to 410 nM throughout. The GI50 with MCF7 [6], in the test with HepG2, in the test with SN12C, in the test with T-24, in the test with SK-OV-3 and with WiDr was 70 to 410 nM throughout. The GI50 with SNU1 lay within 70 to 410 nM.

Regarding `Nc1ccc2c(-c3nc4ccc(Br)c(O)c4s3)cc(=O)oc2c1`, the GI50 was determined as 330 nM in the test with OVCAR-4 and 240 nM in the test on SNB-75.

As usually defined, the IC50 is the concentration that gives 50% inhibition. A lower IC50 goes with higher potency. In the case of `COc1ccc(-n2nc(C)n(-n3c(-c4cc5ccccc5oc4=O)cs/c3=N\c3ccc(Cl)cc3)c2=O)cc1`, the IC50 with K562 [11], in the test with A549 [12], in the test with MDA-MB-231 [15] and in the test with HeLa [17] was 0.16 to 0.31 µg/mL (≈ 0.287 to 0.556 µM) throughout. Besides, the “Ratio IC50” value in the test on HeLa [13], in the test with K562 [14], with MDA-MB-231 [16] and with A549 [18] was 1.9 - 3.3 throughout.
